{"source": "patent US20260271928A1", "about": "“CONTROL OF PESTS RESISTANT TO INSECTICIDES” (Syngenta Crop Protection Ag, priority 2023, published 2026)", "format_in_all_cases": "in vivo", "key": {"Resistant Myzus persicae": {"test_system": "Resistant Myzus persicae", "assay": "Resistant Myzus persicae (rMP)", "conditions": "resistant strain, pepper plants, spray, mortality 5 days after treatment; 0 = BP80 >50 ppm"}, "Resistant Bemisia tabaci": {"test_system": "Resistant Bemisia tabaci", "assay": "Resistant Bemisia tabaci (rBT)", "conditions": "resistant strain biotype Q, adults on cotton leaf discs, mortality 4 days after treatment; 0 = BP80 >50 ppm", "description": "(§1) Cotton leaf discs were placed upside down in petri dishes on water agar and treated with the diluted test solutions in a spray chamber. After drying, leaf discs were infested with 10 adult Bemisia tabaci. Dishes were covered with a fabric filter and sealed with a perforated plastic lid. 4 days after treatment samples were assessed for mortality.\nResistant Bemisia tabaci (rBT)\nBiotype Q originally field-collected in 2000 from Almeria, Spain. […] The strain carried the mutation L925I in the voltage-gated sodium channel conferring resistance to pyrethroids. It also had higher expression of the p450 CYP6CM1 conferring metabolic resistance to neonicotinoids."}, "Bemisia tabaci": {"test_system": "Bemisia tabaci", "assay": "Bemisia tabaci (cotton whitefly), adult, feeding/contact (sBT)", "conditions": "sensitive strain, adults on cotton leaf discs, mortality 4 days after treatment; 0 = BP80 >50 ppm", "description": "Bemisia tabaci (Cotton Whitefly), Adult, Feeding/Contact (sBT)\nas §1"}, "Myzus persicae": {"test_system": "Myzus persicae", "assay": "Myzus persicae (green peach aphid), mixed population, feeding/contact (sMP)", "conditions": "sensitive strain, pepper plants, spray, mortality 5 days after treatment; 0 = BP80 >50 ppm", "description": "Myzus persicae (Green Peach Aphid), Mixed Population, Feeding/Contact (sMP)\nPepper plants were infested with an Myzus persicae population of mixed ages. One day after infestation the plants were treated with the diluted test solutions in a spray chamber. 5 days after treatment samples were assessed for mortality."}}}
{"smiles": "CC[S@@](=N)(=O)c1cc(C2(C#N)CC2)cnc1-c1nc2cc(C(F)(F)F)cnc2n1C", "note": "[P24, (R)-1-[5-(ethyl-sulfonimidoyl)-6-[3-methyl-6-(trifluoromethyl)imidazo[4,5-b]pyridin-2-yl]-3-pyridyl]cyclo-propanebonitrile]", "values": [{"measurement": "pBP80 r-MP", "setting": "Resistant Myzus persicae", "result": 4.5}, {"measurement": "pBP80 rBT", "setting": "Resistant Bemisia tabaci", "result": 3.9}, {"measurement": "pBP80 sBT", "setting": "Bemisia tabaci", "result": 5.1}, {"measurement": "pBP80 s-MP", "setting": "Myzus persicae", "result": 5.2}]}
